Laboratory results as given in PubChem BioAssay AID652280 (Broad Institute, 2013).
Records with an inconclusive call do not appear. The source made the active and inactive calls. The rule behind the calls is not given here.

Assay: mouse embryonic fibroblast toxicity – cell-based, plate reader, dry powder, set 2, cytotoxicity control, dose response (AID 652280)
Conditions: NIH/3T3 mouse fibroblast toxicity, plate reader; at 16 µM (top of the series)

Compound	activity change, negative = toxicity
COc1ccc(CN(C)C[C@@H]2Oc3c(NC(=O)c4ccncc4)cccc3C(=O)N([C@@H](C)CO)C[C@H]2C)cc1	-22.2% (inactive)
CC(C)N1CC[C@@H](CNC(=O)OC(C)(C)C)Oc2c(NC(=O)c3ccncc3)cccc2C1=O	-8.28% (inactive)
CC(C)(O)C#Cc1cccc(-c2nc(C(=O)NCc3ccc4c(c3)OCO4)cc3c2[C@H](CCO)N(S(=O)C(C)(C)C)C3)c1 (stereo partly specified)	-19.2% (inactive)
CN(C)C(=O)c1cccc(-c2ccc([C@H]3[C@@H](CO)N4CCCCN(C(=O)C5CCCC5)C[C@@H]34)cc2)c1	28.8% (inactive)
CC(C)N1C[C@H](CN(C)Cc2ccc(Cl)cc2)Oc2c(NC(=O)c3ccnnc3)cccc2C1=O	3.72% (inactive)
CC(C)N1CC2(CN(Cc3ccc(-c4cccnc4)cc3)C2)Oc2c(NC(=O)c3ccncc3)cccc2C1=O	-22.8% (inactive)
C[C@H]1CN([C@@H](C)CO)C(=O)c2cccc(NC(=O)c3ccncc3)c2O[C@@H]1CN(C)Cc1ccc(F)cc1Cl	-10.1% (inactive)
CC(C)N1C[C@H](CNCc2ccc(Cl)cc2)Oc2c(NC(=O)c3ccncc3)cccc2C1=O	-20.3% (inactive)
CC(C)N1C[C@H](C)[C@@H](CN(C)C(=O)OC(C)(C)C)Oc2c(cccc2-c2nn[nH]n2)C1=O	34.3% (inactive)
CCC(=O)N1CC[C@@H]2[C@H]1c1cc(Br)ccc1N(C)[C@@H]2CO	-1.86% (inactive)
C[C@@H]1CN([C@@H](C)CO)C(=O)c2cc(Br)cnc2O[C@H]1CN(C)Cc1ccc2c(c1)OCO2	-12% (inactive)
CC(C)N1CC2(CN(Cc3ccccc3Cl)C2)Oc2c(NC(=O)c3ccncc3)cccc2C1=O	-16.5% (inactive)
C[C@@H]1CCCCO[C@H](CN(C)Cc2ccc(Cl)c(Cl)c2)[C@@H](C)CN([C@H](C)CO)C(=O)c2cc(N(C)C)ccc2O1	82.1% (inactive)
C[C@H]1CN([C@@H](C)CO)C(=O)c2cccc(NC(=O)c3ccncc3)c2O[C@@H]1CN(C)Cc1ccc(Cl)c(F)c1	-25.3% (inactive)
CC(C)N1C[C@H](CN)Oc2c(NC(=O)c3ccncc3)cccc2C1=O	4.38% (inactive)
CC(C)N1C[C@@H](CNCc2ccc(Oc3ccccc3)cc2)Oc2c(NC(=O)c3ccncc3)cccc2C1=O	-29.5% (inactive)
C[C@@H]1CCCCO[C@H](CN(C)C(=O)Nc2cccc3ccccc23)[C@@H](C)CN([C@H](C)CO)C(=O)c2cc(N(C)C)ccc2O1	-0.649% (inactive)
CN(C)C(=O)c1ccc(-c2ccc([C@H]3[C@H](CO)N4CCCCN(Cc5cncnc5)C[C@@H]34)cc2)cc1	10.1% (inactive)
CC(C)N1C[C@@H](C)[C@H](CN(C)Cc2ccc(Oc3ccccc3)cc2)Oc2c(cccc2N(C)C(=O)c2ccncc2)C1=O	-4.89% (inactive)
Cc1ccccc1-c1ccc([C@H]2[C@H](CO)N3CCCCN(C(=O)c4cccnc4)C[C@@H]23)cc1	-15% (inactive)
CN(C)C(=O)c1cccc(-c2ccc([C@H]3[C@H](CO)N4CCCCN(C(=O)C5CCC5)C[C@@H]34)cc2)c1	11.8% (inactive)
CC(C)N1C[C@H](C)[C@@H](CN(C)Cc2ccc(Cl)cc2)Oc2c(cccc2-c2nnn(-c3ccncc3)n2)C1=O	65.7% (inactive)
OC[C@H]1[C@H](c2ccc(Br)cc2)[C@@H]2CN(Cc3ccccn3)CCCCN12	5.37% (inactive)

Compound	activity change, negative = toxicity
O=C(Cc1ccccn1)N1CCCCN2[C@@H](CO)[C@H](c3ccc(-c4ccccc4)cc3)[C@@H]2C1	-15.8% (inactive)
CC(C)(C)S(=O)N1Cc2cc(C(=O)NCc3ccc4c(c3)OCO4)nc(-c3cccc(-c4cccc(F)c4)c3)c2[C@H]1CCO (stereo partly specified)	12.7% (inactive)
CC(C)N1C[C@@H](CN(C)Cc2ccc(Cl)cc2)Oc2c(NC(=O)c3ccccc3)cccc2C1=O	9.38% (inactive)
CN(C)CC#Cc1cccc(-c2nc(C(=O)N[C@@H]3CCN(Cc4ccccc4)C3)cc3c2[C@@H](CCO)N(S(=O)C(C)(C)C)C3)c1 (stereo partly specified)	0.065% (inactive)
CC(C)(C)[S@](=O)N1Cc2cc(C(=O)NCc3ccc4c(c3)OCO4)nc(-c3cccc(-c4ccncc4)c3)c2[C@@H]1CCO	-21.4% (inactive)
CN(C)C(=O)c1cccc(-c2ccc([C@H]3[C@H](CO)N4CCCCN(CC5CCOCC5)C[C@@H]34)cc2)c1	20% (inactive)
Cc1ccc(CN(C)C[C@H]2Oc3c(NC(=O)c4ccncc4)cccc3C(=O)N([C@@H](C)CO)C[C@@H]2C)cc1	-16.5% (inactive)
COC[C@H](C)N1C[C@H](C)[C@@H](CN(C)Cc2ccc(Cl)cc2)Oc2c(NC(=O)c3ccncc3)cccc2C1=O	2.38% (inactive)
CC(C)(C)S(=O)N1Cc2cc(C(=O)NCc3ccc4c(c3)OCO4)nc(-c3cccc(C#CCC4CCCC4)c3)c2[C@H]1CCO (stereo partly specified)	96.9% (inactive)
CN(C)CC(=O)N1CCCCN2[C@@H](CO)[C@H](c3ccc(-c4cccnc4)cc3)[C@@H]2C1	0.846% (inactive)
CC(C)(C)S(=O)N1Cc2cc(C(=O)NCc3ccc4c(c3)OCO4)nc(-c3cccc(-c4cc5ccccc5o4)c3)c2[C@H]1CCO (stereo partly specified)	-5.85% (inactive)
Cc1cccc(CN(C)C[C@H]2Oc3c(NC(=O)c4ccncc4)cccc3C(=O)N([C@@H](C)CO)C[C@@H]2C)c1	-19.1% (inactive)
CN(C)C(=O)c1cccc(-c2ccc([C@H]3[C@H](CO)N4CCCCN(C(=O)C5CCCC5)C[C@@H]34)cc2)c1	32.1% (inactive)
CCN(C)C[C@H]1Oc2c(NC(=O)c3ccncc3)cccc2C(=O)N(C(C)C)[C@@H]1C	-7.46% (inactive)
CC(C)N1CC2(CN(Cc3ccccc3)C2)Oc2c(NC(=O)c3ccncc3)cccc2C1=O	-2.24% (inactive)
CC(C)N1C[C@H](C)[C@@H](CN(C)Cc2ccc(Oc3ccccc3)cc2)Oc2c(cccc2-c2nn[nH]n2)C1=O	28.7% (inactive)
CC(C)N1CC2(CN(Cc3ccc(Cl)cc3)C2)Oc2c(NC(=O)c3ccncc3)cccc2C1=O	-2.46% (inactive)
CC(C)N1C[C@@H](C)[C@H](CN(C)C(=O)OC(C)(C)C)Oc2c(C(=O)Nc3ccncc3)cccc2C1=O	-10.9% (inactive)
CC(C)N1C[C@@H](C)[C@H](CN(C)Cc2ccc(OCCCC(F)(F)C(F)(F)C(F)(F)C(F)(F)C(F)(F)C(F)(F)C(F)(F)C(F)(F)F)cc2)Oc2c(NC(=O)c3ccncc3)cccc2C1=O	22.1% (inactive)
CNC[C@@H]1Oc2c(NC(=O)c3ccncc3)cccc2C(=O)N(C(C)C)C[C@H]1C	1.96% (inactive)
CN(C)CC#Cc1cccc(-c2nc(C(=O)NCc3ccc(Oc4ccccc4)cc3)cc3c2[C@@H](CCO)N(S(=O)C(C)(C)C)C3)c1 (stereo partly specified)	31.3% (inactive)
Cc1cccc(-c2ccc([C@H]3[C@H](CO)N4CCCCN(C(=O)c5ccncc5)C[C@@H]34)cc2)c1	-19.7% (inactive)
CCOC(=O)c1cc2c(c(-c3cccc(C#CCN(C)C)c3)n1)[C@@H](CCO)N(S(=O)C(C)(C)C)C2 (stereo partly specified)	21.1% (inactive)
